This assay relates to C. albicans. In words: Screening II: Candida growth in Lactobacillus cell-free filtrate (LCF), visual turbidity scale 5 to 0. As to conditions: acids 50 mM, salts 0.3%; 20 hours at 37° C. It is filed as cell-based, Candida albicans. The text has this: Clinical isolates of Candida albicans and Candida glabrata were used as test strains. These were isolated from the vagina of women with vaginal candidiasis and from healthy females. Suspensions of lactobacilli grown in dMRSs broth (MRS broth without addition of sodium acetate) were centrifuged and sterile filtered. The filtrate is henceforth called Lactobacillus Cell-free Filtrate, LCF. A specified volume was transferred to wells of a micro titre plate and was let to air dry and thereafter resuspended in sterile distilled water to a concentration three times higher and transferred to 96-wells micro titre plates. Candida was added to all vials (three isolates of C. albicans and C. glabrata, respectively, were used). The inhibition was evaluated by visual observation of turbidity and graduated by two persons using a template on a scale from five to zero. […] The plates were incubated for 20 hours at 37° C. and the candida growth in the vials was visually evaluated and graduated from five to zero. […] The inhibition was evaluated by visual observation of turbidity and graduated by two persons using a template on a scale from five to zero. […] The plates were incubated for 20 hours at 37° C. and the candida growth in the wells was visually evaluated and graduated from five to zero.

Consider two compounds from patent US8222020B2, “Biologically pure strain of Lactobacillus fermentum, strain Ess-1” (SCA Hygiene Products AB, priority 2006, dated 2012).

Consider `CCC(=O)[O-].[Na+]` [Sodium propionate], for which the “effect of acids and acid salts on the growth of C. albicans” value is given as “most extended effect”.

For the compound `CCC(=O)O` [propionic acid], the “effect of acids and acid salts on the growth of C. albicans” value is “most extended effect”.
